Legend:
Experiment in all cases: KiNativ kinome profiling in PANC-1 lysate
Type in all cases: binding
IRAK4 = molecular target: T1, IRAK4 (Homo sapiens, UniProt Q9NWZ3)
T1 construct: we opted to conduct a kinome screen (KiNativ) in PANC-1 cell lysates; endogenous in cells; host or cells: PANC-1 cell lysate
Outline: (§1)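 PANC-1 lysates were incubated with 5 μM inhibitor or DMSO, then labeled with a desthiobiotin-ATP acyl-phosphate probe that biotinylates conserved kinase lysines. Tryptic peptides were streptavidin-enriched and quantified by LC-MS/MS, reported as % change in MS signal from duplicate treated and duplicate control samples.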

MSK1 domain1 = molecular target: T2, MSK1 domain1 (Homo sapiens, UniProt O75582); settings: Lys2
T2 construct: endogenous in cells; host or cells: PANC-1
Outline: as §1

CK1g2 = molecular target: T3, CK1g2 (Homo sapiens, UniProt P78368); settings: Lys2
T3 construct: endogenous in cells; host or cells: PANC-1 cell lysate
Outline: as §1

FYN, SRC, YES = settings: 5 µM; ATP Loop; QGAKFPIKWTAPEAALYGR
Outline: as §1

MST4, YSK1 = settings: 5 µM; Lys2; DIKAANVLLSEQGDVK
Outline: as §1

PI4K2B = molecular target: T4, PI4K2B (Homo sapiens, UniProt Q8TCG2); settings: ATP
T4 construct: endogenous in cells; host or cells: PANC-1 cell lysate
Outline: as §1

CK2a1 = molecular target: T5, CK2a1 (Homo sapiens, UniProt P68400); settings: Protein Kinase Domain
T5 construct: endogenous in cells; host or cells: PANC-1 cell lysate
Outline: as §1

CDK5 = molecular target: T6, CDK5 (Homo sapiens, UniProt Q00535)
T6 construct: endogenous in cells; host or cells: PANC-1 cell lysate
T6 sequence (Q00535 whole entry): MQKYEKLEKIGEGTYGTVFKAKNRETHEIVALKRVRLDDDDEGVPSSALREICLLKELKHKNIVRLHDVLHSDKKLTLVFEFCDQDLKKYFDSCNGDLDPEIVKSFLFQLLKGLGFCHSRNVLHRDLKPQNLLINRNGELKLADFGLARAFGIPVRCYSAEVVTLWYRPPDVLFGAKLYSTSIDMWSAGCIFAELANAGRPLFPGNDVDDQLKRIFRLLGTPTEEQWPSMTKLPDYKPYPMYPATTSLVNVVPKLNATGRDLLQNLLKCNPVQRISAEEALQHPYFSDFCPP
Outline: as §1

MST1 = molecular target: T7, MST1 (Homo sapiens, UniProt Q13043); settings: Lys1
T7 construct: endogenous in cells; host or cells: PANC-1
Outline: as §1

SNRK = molecular target: T8, SNRK (Homo sapiens, UniProt Q9NRH2)
T8 construct: endogenous in cells; host or cells: PANC-1 cell lysate
T8 sequence (Q9NRH2 whole entry): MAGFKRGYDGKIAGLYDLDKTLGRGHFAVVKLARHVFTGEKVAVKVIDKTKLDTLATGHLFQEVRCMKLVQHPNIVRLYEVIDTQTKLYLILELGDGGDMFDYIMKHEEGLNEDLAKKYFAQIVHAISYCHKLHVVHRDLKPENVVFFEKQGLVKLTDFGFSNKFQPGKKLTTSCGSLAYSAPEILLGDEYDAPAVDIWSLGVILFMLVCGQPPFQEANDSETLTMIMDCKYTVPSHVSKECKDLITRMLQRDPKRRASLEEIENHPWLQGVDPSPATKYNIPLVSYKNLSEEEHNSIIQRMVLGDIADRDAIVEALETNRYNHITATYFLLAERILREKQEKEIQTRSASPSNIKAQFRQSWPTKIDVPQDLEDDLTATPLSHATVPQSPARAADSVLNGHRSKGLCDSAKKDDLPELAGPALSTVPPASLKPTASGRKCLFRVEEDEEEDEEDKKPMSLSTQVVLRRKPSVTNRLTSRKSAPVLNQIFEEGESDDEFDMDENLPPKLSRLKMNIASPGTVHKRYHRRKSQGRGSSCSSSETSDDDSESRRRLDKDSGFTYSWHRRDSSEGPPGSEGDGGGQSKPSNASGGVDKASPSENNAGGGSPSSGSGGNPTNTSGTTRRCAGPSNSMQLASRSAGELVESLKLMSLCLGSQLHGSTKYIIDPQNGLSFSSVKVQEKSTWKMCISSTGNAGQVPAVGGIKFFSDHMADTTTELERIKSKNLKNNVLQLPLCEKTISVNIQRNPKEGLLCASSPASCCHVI
Outline: as §1

BARK1 = molecular target: T9, BARK1 (Homo sapiens, UniProt P25098); settings: Lys2
T9 construct: endogenous in cells; host or cells: PANC-1 cell lysate
Outline: as §1

p70S6Kb = molecular target: T10, p70S6Kb (Homo sapiens, UniProt Q9UBS0); settings: Lys2
T10 construct: endogenous in cells; host or cells: PANC-1 cell lysate
Outline: as §1

STLK6 = molecular target: T11, STLK6 (Homo sapiens, UniProt Q9C0K7); settings: Lys1
T11 construct: endogenous in cells; host or cells: PANC-1 cell lysate
Outline: as §1

IKKa = molecular target: T12, IKKa (Homo sapiens, UniProt O15111); settings: Lys2
T12 construct: we opted to conduct a kinome screen (KiNativ) in PANC-1 cell lysates; endogenous in cells; host or cells: PANC-1 cell lysate
Outline: as §1

CRK7 = molecular target: T13, CRK7 (Homo sapiens, UniProt Q9NYV4); settings: Lys2
T13 construct: endogenous in cells; host or cells: PANC-1 cell lysate
T13 sequence (Q9NYV4 whole entry): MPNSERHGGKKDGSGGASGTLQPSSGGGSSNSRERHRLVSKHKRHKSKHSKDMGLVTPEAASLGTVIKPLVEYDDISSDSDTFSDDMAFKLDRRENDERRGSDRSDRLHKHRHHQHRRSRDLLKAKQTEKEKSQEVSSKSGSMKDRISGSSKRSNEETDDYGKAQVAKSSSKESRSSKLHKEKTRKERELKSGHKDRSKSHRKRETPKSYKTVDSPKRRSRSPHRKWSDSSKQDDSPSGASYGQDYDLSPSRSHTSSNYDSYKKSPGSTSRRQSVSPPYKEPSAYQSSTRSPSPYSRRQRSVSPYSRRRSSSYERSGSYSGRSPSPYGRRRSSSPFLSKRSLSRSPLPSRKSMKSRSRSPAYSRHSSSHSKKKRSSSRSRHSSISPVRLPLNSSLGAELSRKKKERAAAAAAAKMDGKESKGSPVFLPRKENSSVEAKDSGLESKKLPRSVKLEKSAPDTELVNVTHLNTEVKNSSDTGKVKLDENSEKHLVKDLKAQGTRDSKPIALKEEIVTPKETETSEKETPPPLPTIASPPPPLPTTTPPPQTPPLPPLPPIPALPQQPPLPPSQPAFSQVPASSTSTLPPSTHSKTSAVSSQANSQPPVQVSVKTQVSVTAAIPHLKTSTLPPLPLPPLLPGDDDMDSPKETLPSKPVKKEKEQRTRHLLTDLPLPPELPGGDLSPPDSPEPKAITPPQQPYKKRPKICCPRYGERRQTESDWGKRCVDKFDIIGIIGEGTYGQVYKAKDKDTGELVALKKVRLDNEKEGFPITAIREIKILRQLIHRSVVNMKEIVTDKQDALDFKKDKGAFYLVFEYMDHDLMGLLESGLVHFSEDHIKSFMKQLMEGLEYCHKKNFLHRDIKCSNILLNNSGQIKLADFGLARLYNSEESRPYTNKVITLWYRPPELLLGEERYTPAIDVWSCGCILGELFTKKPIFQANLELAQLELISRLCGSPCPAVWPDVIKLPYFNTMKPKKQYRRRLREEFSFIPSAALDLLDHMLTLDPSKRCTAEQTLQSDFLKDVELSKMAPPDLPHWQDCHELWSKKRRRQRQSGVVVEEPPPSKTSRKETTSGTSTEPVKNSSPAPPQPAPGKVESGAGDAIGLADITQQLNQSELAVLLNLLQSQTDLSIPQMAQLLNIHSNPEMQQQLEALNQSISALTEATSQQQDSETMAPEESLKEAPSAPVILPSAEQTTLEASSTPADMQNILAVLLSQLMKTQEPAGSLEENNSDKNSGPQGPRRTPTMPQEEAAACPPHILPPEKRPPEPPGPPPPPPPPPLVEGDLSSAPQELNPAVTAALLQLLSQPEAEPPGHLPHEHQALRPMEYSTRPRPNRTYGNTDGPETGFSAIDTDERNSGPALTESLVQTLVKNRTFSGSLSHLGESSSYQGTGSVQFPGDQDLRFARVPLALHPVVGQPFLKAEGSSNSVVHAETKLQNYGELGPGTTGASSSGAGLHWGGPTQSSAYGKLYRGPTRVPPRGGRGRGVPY
Outline: as §1

MAP2K6 = molecular target: T14, MAP2K6 (Homo sapiens, UniProt P52564); settings: for % Inhibition: 5 µM
T14 construct: endogenous in cells; host or cells: PANC-1 cell lysate
T14 sequence (P52564 1-334): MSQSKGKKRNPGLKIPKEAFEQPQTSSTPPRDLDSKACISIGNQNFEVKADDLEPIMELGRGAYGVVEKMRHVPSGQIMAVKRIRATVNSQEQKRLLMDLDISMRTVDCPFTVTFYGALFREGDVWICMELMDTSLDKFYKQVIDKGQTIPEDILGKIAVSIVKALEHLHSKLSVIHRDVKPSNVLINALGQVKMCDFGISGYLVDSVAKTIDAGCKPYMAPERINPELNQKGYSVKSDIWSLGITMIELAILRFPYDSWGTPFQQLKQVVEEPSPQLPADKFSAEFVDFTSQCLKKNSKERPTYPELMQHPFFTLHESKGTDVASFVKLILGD
Outline: as §1

Wnk1, Wnk2, Wnk4 = settings: 5 µM; ATP Loop; IGDLGLATLKR
Outline: as §1

PAK2 = molecular target: T15, PAK2 (Homo sapiens, UniProt Q13177)
T15 construct: endogenous in cells; host or cells: PANC-1 cell lysate
T15 sequence (Q13177 whole entry): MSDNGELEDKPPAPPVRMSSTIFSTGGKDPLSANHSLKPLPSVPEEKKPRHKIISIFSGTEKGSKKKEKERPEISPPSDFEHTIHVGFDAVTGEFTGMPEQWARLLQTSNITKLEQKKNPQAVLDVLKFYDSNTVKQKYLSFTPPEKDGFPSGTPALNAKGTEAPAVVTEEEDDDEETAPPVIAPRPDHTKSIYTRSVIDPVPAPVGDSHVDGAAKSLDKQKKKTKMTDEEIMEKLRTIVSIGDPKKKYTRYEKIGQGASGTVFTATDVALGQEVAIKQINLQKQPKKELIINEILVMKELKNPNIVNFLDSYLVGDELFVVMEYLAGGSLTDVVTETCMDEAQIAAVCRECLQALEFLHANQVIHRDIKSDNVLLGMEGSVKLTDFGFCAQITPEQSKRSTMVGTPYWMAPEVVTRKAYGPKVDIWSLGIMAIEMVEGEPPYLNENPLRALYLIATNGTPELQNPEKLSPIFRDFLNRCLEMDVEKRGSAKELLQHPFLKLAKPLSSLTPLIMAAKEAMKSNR
Outline: as §1

PI4KA, PI4KAP2 = settings: 5 µM; ATP; SGTPMQSAAKAPYLAK
Outline: as §1

CK1g1 = molecular target: T16, CK1g1 (Homo sapiens, UniProt Q9HCP0); settings: Lys2
T16 construct: endogenous in cells; host or cells: PANC-1 cell lysate
Outline: as §1

Erk2 = molecular target: T17, Erk2 (Homo sapiens, UniProt P28482); settings: Lys2
T17 construct: endogenous in cells; host or cells: PANC-1 lysate
Outline: as §1

NEK1 = molecular target: T18, NEK1 (Homo sapiens, UniProt Q96PY6)
T18 construct: endogenous in cells; host or cells: PANC-1 cell lysate
T18 sequence (Q96PY6 whole entry): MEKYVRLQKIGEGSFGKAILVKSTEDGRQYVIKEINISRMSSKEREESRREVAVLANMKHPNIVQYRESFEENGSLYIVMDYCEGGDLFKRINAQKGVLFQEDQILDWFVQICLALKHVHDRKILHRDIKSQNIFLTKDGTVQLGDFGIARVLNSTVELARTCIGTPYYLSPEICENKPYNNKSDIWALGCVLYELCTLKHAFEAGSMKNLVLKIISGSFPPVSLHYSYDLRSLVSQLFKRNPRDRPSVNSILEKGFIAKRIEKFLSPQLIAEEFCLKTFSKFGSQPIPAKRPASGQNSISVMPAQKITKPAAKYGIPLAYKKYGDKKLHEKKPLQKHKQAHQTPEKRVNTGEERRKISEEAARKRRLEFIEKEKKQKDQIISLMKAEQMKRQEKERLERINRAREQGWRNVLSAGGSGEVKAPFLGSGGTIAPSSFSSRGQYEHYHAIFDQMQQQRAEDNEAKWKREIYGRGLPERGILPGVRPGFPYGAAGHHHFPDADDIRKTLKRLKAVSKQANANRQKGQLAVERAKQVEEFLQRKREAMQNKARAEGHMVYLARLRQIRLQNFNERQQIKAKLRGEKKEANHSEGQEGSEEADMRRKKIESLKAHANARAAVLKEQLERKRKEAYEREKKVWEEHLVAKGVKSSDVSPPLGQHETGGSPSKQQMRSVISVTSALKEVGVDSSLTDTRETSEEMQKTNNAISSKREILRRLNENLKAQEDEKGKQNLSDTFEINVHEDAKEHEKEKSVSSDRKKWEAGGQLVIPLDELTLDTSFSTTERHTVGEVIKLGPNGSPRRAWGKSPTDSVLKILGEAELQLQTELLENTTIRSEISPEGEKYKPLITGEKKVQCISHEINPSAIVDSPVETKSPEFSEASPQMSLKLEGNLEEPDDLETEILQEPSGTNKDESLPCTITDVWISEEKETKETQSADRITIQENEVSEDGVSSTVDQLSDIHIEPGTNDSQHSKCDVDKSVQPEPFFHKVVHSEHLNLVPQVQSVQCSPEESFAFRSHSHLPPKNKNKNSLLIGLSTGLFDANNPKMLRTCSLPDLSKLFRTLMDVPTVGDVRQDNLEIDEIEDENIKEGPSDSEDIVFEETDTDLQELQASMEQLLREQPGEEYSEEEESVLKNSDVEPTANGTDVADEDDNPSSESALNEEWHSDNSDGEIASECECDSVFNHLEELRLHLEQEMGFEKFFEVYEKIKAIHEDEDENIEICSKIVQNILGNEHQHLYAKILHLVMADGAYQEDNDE
Outline: as §1

T1 sequence (Q9NWZ3 whole entry): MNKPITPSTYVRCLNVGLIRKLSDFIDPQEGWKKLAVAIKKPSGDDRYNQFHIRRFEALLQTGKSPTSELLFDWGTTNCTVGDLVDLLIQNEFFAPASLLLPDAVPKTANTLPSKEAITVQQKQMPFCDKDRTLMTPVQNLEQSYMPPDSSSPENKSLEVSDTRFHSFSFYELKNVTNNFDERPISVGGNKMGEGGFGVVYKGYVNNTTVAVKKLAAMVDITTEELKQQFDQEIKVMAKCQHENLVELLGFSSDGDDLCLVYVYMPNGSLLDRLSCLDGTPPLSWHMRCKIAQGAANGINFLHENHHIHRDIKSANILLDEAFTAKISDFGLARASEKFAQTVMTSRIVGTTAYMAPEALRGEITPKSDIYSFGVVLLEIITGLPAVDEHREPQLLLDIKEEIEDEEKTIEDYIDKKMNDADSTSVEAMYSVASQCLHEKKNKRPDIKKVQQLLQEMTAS

## Cn1cc(-c2cnc3ccc(NC(=O)Nc4ccc(F)c(C(F)(F)F)c4)cc3n2)cn1 [51-106, 1-(4-Fluoro-3-(trifluoromethyl)phenyl)-3-(3-(1-methyl-1H-pyrazol-4-yl)quinoxalin-6-yl)urea]
IRAK4; Lys1, GYVNNTTVAVKK
  inhibition at 5 µM: ≤ 0%
IRAK4; Lys2, DIKSANILLDEAFTAK
  inhibition at 5 µM: 1.2%
MSK1 domain1
  inhibition at 5 µM: ≤ 0%
CK1g2
  inhibition at 5 µM: ≤ 0%
FYN, SRC, YES
  % Inhibition: 14.0%
MST4, YSK1
  % Inhibition: 12.8%
PI4K2B
  inhibition at 5 µM: 6.4%
CK2a1
  inhibition at 5 µM: ≤ 0%
CDK5; Lys1, NRETHEIVALKR
  inhibition at 5 µM: ≤ 0%
CDK5; Lys2, DLKPQNLLINR
  inhibition at 5 µM: 6.5%
MST1
  inhibition at 5 µM: ≤ 0%
SNRK; Lys1, VAVKVIDK
  inhibition at 5 µM: ≤ 0%
SNRK; Lys2, DLKPENVVFFEK
  inhibition at 5 µM: 0.4%
BARK1
  inhibition at 5 µM: 2.2%
p70S6Kb
  inhibition at 5 µM: 22.5%
STLK6
  inhibition at 5 µM: 5.8%
IKKa
  inhibition at 5 µM: ≤ 0%
CRK7
  inhibition at 5 µM: 14.3%
MAP2K6; Lys1, HVPSGQIMAVKR
  % Inhibition: NB (NB = No Binding (≤ 0))
MAP2K6; Lys2, DVKPSNVLINALGQVK
  % Inhibition: NB (NB = No Binding (≤ 0))
MAP2K6; ATP Loop, […]
  inhibition at 5 µM: ≤ 0%
Wnk1, Wnk2, Wnk4
  % Inhibition: 4.6%
PAK2; Lys1, IGQGASGTVFTATDVALGQEVAIKQINLQK
  inhibition at 5 µM: 6.9%
PAK2; Other, KNPQAVLDVLKFYDSNTVK
  inhibition at 5 µM: 0.8%
PI4KA, PI4KAP2
  % Inhibition: 3.0%
CK1g1
  inhibition at 5 µM: ≤ 0%
Erk2
  inhibition at 5 µM: ≤ 0%
NEK1; 5 µM, Lys1, QYVIKEINISR
  % Inhibition: NB (NB = No Binding (≤ 0))
NEK1; Lys2, […]
  inhibition at 5 µM: ≤ 0%

Reference: publication PMC12073402, “A Selective MAP3K1 Inhibitor Facilitates Discovery of NPM1 as a Member of the Network” (Molecules, 2025)
